# Data taken from ChEMBL document CHEMBL5500349, “Discovery of ganoderic acid A (GAA) PROTACs as MDM2 protein degraders for the treatment of breast cancer” (Eur J Med Chem, 2024).
# Activity calls are given as the source filed them. The rule behind the calls is not given here.
# Columns and labels:
# MCF7 = test: Antiproliferative activity against human MCF7 cells assessed as cell viability at 100 uM incubated for 48 to 72 hrs by MTT assay; type: functional; conditions: time 48-72 hrs, read-out: Activity
# MDA-MB-231 [1] = test: Antiproliferative activity against human MDA-MB-231 cells assessed as cell viability at 100 uM incubated for 48 to 72 hrs by MTT assay; type: functional; conditions: time 48-72 hrs, read-out: Activity
# SJSA-1 = test: Antiproliferative activity against human SJSA-1 cells assessed as cell viability at 100 uM incubated for 48 to 72 hrs by MTT assay; type: functional; conditions: time 48-72 hrs, read-out: Activity
# HepG2 = test: Antiproliferative activity against human HepG2 cells assessed as cell viability at 100 uM incubated for 48 to 72 hrs by MTT assay; type: functional; conditions: time 48-72 hrs, read-out: Activity
# [2] = Cytotoxicity against mouse HT-22 cells assessed as cell viability at 100 uM incubated for 48 to 72 hrs by MTT assay; type: toxicity, cell-based; conditions: time 48-72 hrs, read-out: Activity
# [3] = target: T1, von Hippel-Lindau disease tumor suppressor/E3 ubiquitin-protein ligase Mdm2 (Homo sapiens, UniProt Q00987+P40337); test: Protac activity at VHL/MDM2 in human MDA-MB-231 cells assessed as reduction in MDM2 protein level after 48 hrs by Western blotting analysis; type: cell-based; conditions: dose 20-80 µM
# T1 sequence (P40337 whole entry, looked up): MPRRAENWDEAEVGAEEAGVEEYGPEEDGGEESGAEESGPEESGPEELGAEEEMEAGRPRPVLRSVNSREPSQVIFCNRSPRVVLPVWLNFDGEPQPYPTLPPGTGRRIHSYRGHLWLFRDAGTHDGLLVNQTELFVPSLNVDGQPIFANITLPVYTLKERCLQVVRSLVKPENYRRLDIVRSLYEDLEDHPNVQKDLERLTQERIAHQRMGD
# T1 sequence (Q00987 whole entry, looked up): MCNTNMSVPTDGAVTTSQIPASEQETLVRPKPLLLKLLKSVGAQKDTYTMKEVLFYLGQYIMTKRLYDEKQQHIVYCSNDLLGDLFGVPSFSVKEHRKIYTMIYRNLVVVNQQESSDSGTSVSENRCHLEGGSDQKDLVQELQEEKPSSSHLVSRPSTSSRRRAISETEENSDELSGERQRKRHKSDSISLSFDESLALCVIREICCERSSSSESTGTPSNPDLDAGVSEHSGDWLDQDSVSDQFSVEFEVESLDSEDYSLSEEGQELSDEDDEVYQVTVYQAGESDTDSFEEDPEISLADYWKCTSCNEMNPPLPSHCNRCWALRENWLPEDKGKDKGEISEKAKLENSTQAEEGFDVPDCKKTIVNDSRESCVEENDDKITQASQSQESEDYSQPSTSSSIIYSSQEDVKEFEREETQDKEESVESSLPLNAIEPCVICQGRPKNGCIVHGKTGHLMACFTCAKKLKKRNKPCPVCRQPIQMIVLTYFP
# [4] = target: T1, von Hippel-Lindau disease tumor suppressor/E3 ubiquitin-protein ligase Mdm2; test: Protac activity at VHL/MDM2 in human MDA-MB-231 cells assessed as reduction in MDM2 protein level at 80 uM after 48 hrs by Western blotting analysis; type: cell-based; design: scale not given: the % may be the effect or the level left
# [5] = target: T1, von Hippel-Lindau disease tumor suppressor/E3 ubiquitin-protein ligase Mdm2; test: Protac activity at VHL/MDM2 in human MDA-MB-231 cells assessed as upregulation of p21 level at 20 to 80 uM after 48 hrs by Western blotting analysis; type: cell-based; conditions: dose 20-80 µM
# [6] = target: T1, von Hippel-Lindau disease tumor suppressor/E3 ubiquitin-protein ligase Mdm2; test: Protac activity at VHL/MDM2 in human MDA-MB-231 cells assessed as reduction in MDM2 protein level at 80 uM pretreated with MG-132 for 2 hrs followed by compound addition and measured after 48 hrs by Western blotting analysis; type: cell-based
# [7] = target: T2, E3 ubiquitin-protein ligase Mdm2 (Homo sapiens, UniProt Q00987); test: Binding affinity to MDM2 (unknown origin) by SPR assay
# Target sequence in this assay (Q00987 whole entry): as the sequence (Q00987 whole entry, looked up) above
# [8] = target: T2, E3 ubiquitin-protein ligase Mdm2; test: Binding affinity to MDM2 (unknown origin) assessed as increase in protein stability incubated for 30 mins by CETSA
# Target sequence in this assay (Q00987 whole entry, looked up): as above
# MDA-MB-231 [9] = test: Induction of apoptosis in human MDA-MB-231 cells assessed as reduction in bcl-2/bax ratio at 20 to 40 uM by Western blotting analysis; type: functional, cell-based; conditions: dose 20-40 µM
# MDA-MB-231 [10] = test: Induction of cell cycle arrest in human MDA-MB-231 cells assessed as increase in number of G1 phase cells at 80 uM after 48 hrs by PI/RNase staining based flow cytometry analysis; type: functional
# MDA-MB-231 [11] = test: Induction of cell cycle arrest in human MDA-MB-231 cells assessed as decrease in number of S phase cells at 80 uM after 48 hrs by PI/RNase staining based flow cytometry analysis; type: functional
# MDA-MB-231 [12] = test: Induction of cell cycle arrest in human MDA-MB-231 cells assessed as increase in number of G2 phase cells at 80 uM after 48 hrs by PI/RNase staining based flow cytometry analysis; type: functional
# MDA-MB-231 [13] = test: Induction of G1/S phase arrest in human MDA-MB-231 cells assessed as increase in p21 mRNA expression at 20 to 80 uM by qRT-PCR analysis; type: functional, cell-based; conditions: dose 20-80 µM
# MDA-MB-231 [14] = test: Induction of G2/M phase arrest in human MDA-MB-231 cells assessed as decrease in cyclin B1 protein expression at 20 to 80 uM by Western blotting analysis; type: functional, cell-based; conditions: dose 20-80 µM
# MDA-MB-231 [15] = test: Induction of apoptosis in human MDA-MB-231 cells assessed as viable cells at 20 uM incubated for 48 hrs by Annexin-V FITC/PI staining based flow cytometry analysis (reference value: 90.3%); type: functional; conditions: read-out: Activity
# MDA-MB-231 [16] = test: Induction of apoptosis in human MDA-MB-231 cells assessed as early apoptotic cells at 20 uM incubated for 48 hrs by Annexin-V FITC/PI staining based flow cytometry analysis (reference value: 3.37%); type: functional
# MDA-MB-231 [17] = test: Induction of apoptosis in human MDA-MB-231 cells assessed as late apoptotic cells at 20 uM incubated for 48 hrs by Annexin-V FITC/PI staining based flow cytometry analysis (reference value: 6.04%); type: functional
# MDA-MB-231 [18] = test: Induction of apoptosis in human MDA-MB-231 cells assessed as necrotic cells at 20 uM incubated for 48 hrs by Annexin-V FITC/PI staining based flow cytometry analysis (reference value: 0.26%); type: functional
# MDA-MB-231 [19] = test: Induction of apoptosis in human MDA-MB-231 cells assessed as viable cells at 40 uM incubated for 48 hrs by Annexin-V FITC/PI staining based flow cytometry analysis (reference value: 90.3%); type: functional; conditions: read-out: Activity
# MDA-MB-231 [20] = test: Induction of apoptosis in human MDA-MB-231 cells assessed as early apoptotic cells at 40 uM incubated for 48 hrs by Annexin-V FITC/PI staining based flow cytometry analysis (reference value: 3.37%); type: functional
# MDA-MB-231 [21] = test: Induction of apoptosis in human MDA-MB-231 cells assessed as late apoptotic cells at 40 uM incubated for 48 hrs by Annexin-V FITC/PI staining based flow cytometry analysis (reference value: 6.04%); type: functional
# MDA-MB-231 [22] = test: Induction of apoptosis in human MDA-MB-231 cells assessed as necrotic cells at 40 uM incubated for 48 hrs by Annexin-V FITC/PI staining based flow cytometry analysis (reference value: 0.26%); type: functional
# MDA-MB-231 [23] = test: Induction of apoptosis in human MDA-MB-231 cells assessed as viable cells at 80 uM incubated for 48 hrs by Annexin-V FITC/PI staining based flow cytometry analysis (reference value: 90.3%); type: functional; conditions: read-out: Activity
# MDA-MB-231 [24] = test: Induction of apoptosis in human MDA-MB-231 cells assessed as early apoptotic cells at 80 uM incubated for 48 hrs by Annexin-V FITC/PI staining based flow cytometry analysis (reference value: 3.37%); type: functional
# MDA-MB-231 [25] = test: Induction of apoptosis in human MDA-MB-231 cells assessed as late apoptotic cells at 80 uM incubated for 48 hrs by Annexin-V FITC/PI staining based flow cytometry analysis (reference value: 6.04%); type: functional
# MDA-MB-231 [26] = test: Induction of apoptosis in human MDA-MB-231 cells assessed as necrotic cells at 80 uM incubated for 48 hrs by Annexin-V FITC/PI staining based flow cytometry analysis (reference value: 0.26%); type: functional
# MDA-MB-231 [27] = test: Downregulation of MDM2 expression in human MDA-MB-231 cells at 20 to 80 uM incubated for 48 hrs by immunofluorescence analysis; type: functional, cell-based; conditions: dose 20-80 µM
# MDA-MB-231 [28] = test: Upregulation of p21 expression in human MDA-MB-231 cells at 20 to 80 uM incubated for 48 hrs by immunofluorescence analysis; type: functional, cell-based; conditions: dose 20-80 µM
# MDA-MB-231 [29] = test: Inhibition of cell migration in human MDA-MB-231 cells at 80 uM incubated for 24 hrs by wound healing assay; type: functional, cell-based
# MDA-MB-231 [30] = test: Inhibition of cell migration in human MDA-MB-231 cells at 80 uM incubated for 48 hrs by wound healing assay; type: functional, cell-based
# [31] = Toxicity in zebrafish assessed as death at < 50 ug/ml; design: species or system Danio rerio; conditions: in vivo, dose < 50 µg/ml
# [32] = Toxicity in zebrafish assessed as appearance of toxic phenotype at < 50 ug/ml; design: species or system Danio rerio; conditions: in vivo, dose < 50 µg/ml
# [33] = Toxicity in zebrafish assessed as minimum toxic concentration measured after 2 days; design: species or system Danio rerio; conditions: in vivo, 48 h, time 2 day
# [34] = Toxicity in zebrafish assessed as mortality rate at 6.25 ug/ml; design: species or system Danio rerio; conditions: in vivo, at 6.25 µg/mL, read-out: Activity
# [35] = Toxicity in zebrafish assessed as mortality rate at 12.5 ug/ml; design: species or system Danio rerio; conditions: in vivo, at 12.5 µg/mL, read-out: Activity
# [36] = Toxicity in zebrafish assessed as mortality rate at 25 ug/ml; design: species or system Danio rerio; conditions: in vivo, at 25 µg/mL, read-out: Activity
# [37] = Toxicity in zebrafish assessed as mortality rate at 50 ug/ml; design: species or system Danio rerio; conditions: in vivo, at 50 µg/mL, read-out: Activity
# [38] = Toxicity in zebrafish assessed as mortality rate at 100 ug/ml; design: species or system Danio rerio; conditions: in vivo, at 100 µg/mL, read-out: Activity
# MDA-MB-231 [39] = test: Antitumor activity against human MDA-MB-231 cells xenografted in zebrafish assessed as inhibition rate at 12.5 ug/ml after 2 days by fluorescence microscopic method; type: functional; design: scale not given: the % may be the effect or the level left; conditions: dose 12.5 µg/ml; time 2 day
# MDA-MB-231 [40] = test: Antitumor activity against human MDA-MB-231 cells xenografted in zebrafish assessed as inhibition rate at 25 ug/ml after 2 days by fluorescence microscopic method; type: functional; design: scale not given: the % may be the effect or the level left; conditions: dose 25 µg/ml; time 2 day
# MDA-MB-231 [41] = test: Antitumor activity against human MDA-MB-231 cells xenografted in zebrafish assessed as inhibition rate at 50 ug/ml after 2 days by fluorescence microscopic method; type: functional; design: scale not given: the % may be the effect or the level left; conditions: dose 50 µg/ml; time 2 day
structure (smiles),measurement,setting,value
Cc1ncsc1-c1ccc([C@H](C)NC(=O)[C@@H]2C[C@@H](O)CN2C(=O)[C@@H](NC(=O)CCCCc2cn(CCOCCOCCOCCOCCNC(=O)[C@H](C)CC(=O)C[C@@H](C)[C@H]3C[C@H](O)[C@@]4(C)C5=C(C(=O)C[C@]34C)[C@@]3(C)CCC(=O)C(C)(C)[C@@H]3C[C@@H]5O)nn2)C(C)(C)C)cc1,viability at 100 µM,MCF7,30.6%
same,viability at 100 µM,MDA-MB-231 [1],16.9%
same,viability at 100 µM,SJSA-1,61.3%
same,viability at 100 µM,HepG2,92.9%
same,viability at 100 µM,[2],91.3%
same,Activity,[3],Dose-Dependent Effect
same,Activity,[4],51%
same,Activity,[5],Active
same,Activity,[6],inactive
same,Kd,[7],38.2 µM
same,Activity,[8],Active
same,Activity,MDA-MB-231 [9],Active
same,Activity,MDA-MB-231 [10],Active
same,Activity,MDA-MB-231 [11],Active
same,Activity,MDA-MB-231 [12],Active
same,Activity,MDA-MB-231 [13],Active
same,Activity,MDA-MB-231 [14],Active
same,viability at 20 µM,MDA-MB-231 [15],90.1%
same,Activity,MDA-MB-231 [16],4.38%
same,Activity,MDA-MB-231 [17],5.34%
same,Activity,MDA-MB-231 [18],0.21%
same,viability at 40 µM,MDA-MB-231 [19],82.3%
same,Activity,MDA-MB-231 [20],7.17%
same,Activity,MDA-MB-231 [21],10.4%
same,Activity,MDA-MB-231 [22],0.13%
same,viability at 80 µM,MDA-MB-231 [23],41.4%
same,Activity,MDA-MB-231 [24],47.4%
same,Activity,MDA-MB-231 [25],10.4%
same,Activity,MDA-MB-231 [26],0.82%
same,Activity,MDA-MB-231 [27],Active
same,Activity,MDA-MB-231 [28],Active
same,inhibition,MDA-MB-231 [29],Active
same,inhibition,MDA-MB-231 [30],Active
same,Activity,[31],Non-Toxic
same,Activity,[32],Non-Toxic
same,MTC,[33],50 µg/mL
same,mortality at 6.25 ug/ml,[34],0%
same,mortality at 12.5 ug/ml,[35],0%
same,mortality at 25 ug/ml,[36],0%
same,mortality at 50 ug/ml,[37],0%
same,mortality at 100 ug/ml,[38],13%
same,Activity,MDA-MB-231 [39],16.8%
same,Activity,MDA-MB-231 [40],23.4%
same,Activity,MDA-MB-231 [41],27.2%
